From patent US8048455B2, “Treatment of cancer and inflammatory disorder” (Academia Sinica, priority 2006, dated 2011)

Assays:
[1] = system: human COX-2 promoter; assay: COX-2 promoter-driven luciferase reporter assay in TPA-treated B16 melanoma cells; type: cell-based, murine; settings: for Suppression of full-length COX-2 promoter activity vs TPA only: TPA 50 ng/mL 6 h
Text: A double-mutated COX-2 promoter containing mutations on both NF-κB sites was also constructed (FIG. 2). PPGL-3-Basic vector was used as a negative control in luciferase assays. COX-2 reporter activity in arbitrary units (AU) was normalized to that for the Renilla luciferase reporter.
Murine melanoma B-16 cells co-transfected with the full-length pCOX-2-Luc and internal control plasmid pRL-TK-Luc plasmid constructs were stimulated without (control) or with TPA, in the absence or presence of the indicated concentrations of CREa8. An amount of 10 μg of total protein lysate was subjected to dual luciferase reporter assay. The induction fold of COX promoter activity by TPA treatment only is presented as 100%. The statistical analyses between […] and CREa8, aspirin, or indomethacin (Indo.) treatment were performed using Student's t-test.
B-16 cells were co-transfected with the full-length pCOX-2-Luc and internal control Renilla pRL-TK-Luc plasmid constructs with the LIPOFECTAMINE reagent (Invitrogen). The cells were then stimulated with vehicle (0.001% DMSO) or with 50 ng/mL TPA, in the absence or presence of dLGG for 6 hours. Ten μg of total protein lysate prepared with Passive Lysis Buffer (Promega) was subjected to dual luciferase reporter assay. The induction fold of COX-2 promoter activity by TPA treatment only is presented as 100%.
The contribution of specific cis-acting element binding sites on the transcription of COX-2 was examined. Data were obtained from 2 to 3 experiments with 3 to 6 replicates and expressed as mean±SD. Two-way ANOVA was used to analyze significance of differences.

[2] = target: T1, COX-2 enzyme (Ovis aries, UniProt P79208); assay: Cyclooxygenase-2 activity assay (chemiluminescent COX inhibitor screening kit); type: biochemical; settings: COX-2 enzyme and substrates
T1 construct: purchased Cayman Chemical
T1 sequence (P79208 17-603): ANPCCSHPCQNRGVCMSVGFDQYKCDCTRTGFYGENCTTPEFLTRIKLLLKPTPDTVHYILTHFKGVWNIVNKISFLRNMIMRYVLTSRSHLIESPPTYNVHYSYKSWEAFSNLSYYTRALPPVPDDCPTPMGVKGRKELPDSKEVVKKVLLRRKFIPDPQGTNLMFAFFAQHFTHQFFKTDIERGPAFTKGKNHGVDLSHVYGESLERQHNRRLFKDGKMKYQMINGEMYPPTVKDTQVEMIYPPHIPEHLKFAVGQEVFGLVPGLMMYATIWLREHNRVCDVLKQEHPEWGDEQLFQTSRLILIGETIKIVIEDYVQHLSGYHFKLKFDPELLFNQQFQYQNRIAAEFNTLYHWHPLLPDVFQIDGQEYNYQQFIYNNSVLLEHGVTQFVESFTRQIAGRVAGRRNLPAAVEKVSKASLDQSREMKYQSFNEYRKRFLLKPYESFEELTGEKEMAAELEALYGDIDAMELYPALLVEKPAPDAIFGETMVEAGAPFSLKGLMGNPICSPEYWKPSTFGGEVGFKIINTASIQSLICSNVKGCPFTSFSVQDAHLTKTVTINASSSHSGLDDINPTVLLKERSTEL
Procedure: COX-2 inhibition was measured with the chemiluminescent COX inhibitor screening assay kit (Cayman Chemical, Ann Arbor, Mich.).
The above-mentioned test compounds were incubated with COX-2 enzyme and substrates before measuring the COX-2 activity.

[3] = system: COX-2 protein; assay: COX-2 protein expression (immunoblotting) in LPS-stimulated macrophages; type: cell-based, murine; settings: LPS 18 h
Procedure: (§1) Total cellular proteins and the specific cytosolic and nuclear proteins were prepared using methods described in Chiang et al. Protein content was measured by the Bradford method (Bio-Rad). Protein was resolved by 5-20% gradient SDS-PAGE and subjected to immunoblotting using enhanced chemiluminescence reagents (ECL, Amersham). Monoclonal antibodies against PARP (Transduction Laboratories, Lexington, Ky.), GA3PDH (Biogenesis, Poole, UK), α-tubulin (Oncogene Science, Cambridge, UK), COX-2 (Cayman Chemical), phospho-(Ser32)-IκBα, phospho-IKKα(Ser180)/IKKβ(Ser181) (New England Biolabs, Beverly, Mass.), iNOS, IκBα, IKKα/β or NF-κB p65 (RelA) (Santa Cruz Biotechnology, Santa Cruz, Calif.) were used.
It was further examined whether dLGG affects COX-2 mRNA and protein expression using RT-PCR and immunoblotting. Cells were treated with dLGG for 1 hour, then LPS (1 μg/mL) was added for 18 hours. Total cellular protein (20 μg) was subjected to immunoblotting. Quantification of COX-2 mRNA and protein expression involved normalization to GA3PDH by densitometry.

[4] = system: COX-2 and nitrotyrosine-containing proteins; assay: Immunohistochemical study of COX-2 and nitrotyrosine protein expression in mouse skin; type: in vivo, Female ICR mice
Procedure: Female ICR mice were topically treated on their shaven backs with vehicle (acetone), TPA, or SNP for 4 hours, or were treated with compound (dLGG, celecoxib, or PTIO) topically for 30 minutes before treating with TPA or SNP for 4 hours and finally killed by cervical dislocation. The formalin-fixed, paraffin-embedded skin tissues were stained according to Chiang et al. Br J Pharmacol 2005; 146:352-63.
Immunohistochemical study was carried out to examine the ability of dLGG to inhibit TPA induction of COX-2 and nitration of proteins in vivo using immunohistochemical analysis in a mouse skin system. Dorsal skin of female ICR mice was treated topically with acetone (vehicle control) or TPA (10 nmol) for 4 hours or with various concentrations of dLGG or celecoxib for 30 minutes before TPA treatment for 4 hours. Immunohistograms were taken with an Olympus DP-70 camera on a Nikon ECLIPSE E800 microscope.

[5] = system: IκBα; assay: IκBα phosphorylation and degradation in LPS-stimulated RAW 264.7 cells (Western blot); type: cell-based, murine; settings: dLGG 1 h, LPS 1 μg/mL 30 min
Procedure: as §1
Cells were treated with various concentrations of dLGG for 1 h followed by the addition of LPS (1 μg/mL) for 30 min. Western blots was then conducted using antibodies for IκBα or phospho-IκBα.

CC/C=C\C/C=C\C/C=C\CCCCCCCC(=O)OC[C@H](CO[C@@H]1O[C@H](CO)[C@H](O)[C@H](O)[C@H]1O)OC(=O)CCCCCCC/C=C\C/C=C\C/C=C\CC [dLGG, 1,2-di-O-α-linolenoyl-3-O-β-galactopyranosyl-sn-glycerol]
Suppression of full-length COX-2 promoter activity vs TPA only ([1]; 50 μg/mL, B16 cells): 20%
TPA-induced luciferase activity of −1334/−1 and −646/−1 promoter constructs (smaller) ([1]; 100 μg/mL, B16 cells): 65-68%
Suppression of full-length COX-2 promoter activity vs TPA only ([1]; 100 μg/mL, B16 cells): 33%
TPA-activated increases in luciferase activity, truncated promoter constructs ([1]; 100 μg/mL, all transfected cells): able to fully inhibit
TPA-induced COX-2 promoter activity in mutant promoter constructs (CRE, NF-IL6, NF-κB) ([1]; B16 cells): able to suppress
IC50 [2]: 5.35 µM
Suppression of LPS-induced COX-2 protein synthesis ([3]; 50 μg/mL): approximately 60%
COX-2 protein level ([3]; 75 μg/mL): barely detectable
Inhibitory effect on COX-2 protein expression and nitrotyrosine-containing proteins versus celecoxib 10 mg in 200 μL/site ([4]; 1 mg in 200 μL/site (6.46 mM)): comparable to that of celecoxib
TPA-induced increases of COX-2 and nitrotyrosine-containing proteins in epidermis ([4]; topical 30 min before TPA 10 nmol 4 h): significantly attenuated
Topical SNP-induced nitroprotein formation in mouse skin ([4]; topical, SNP-treated): suppressed
IκBα degradation [5]: prevented
LPS-induced phosphorylation of IκBα [5]: inhibited
